Columns and labels:
Assay in all cases: 3' UTR reporter interaction score (median-centred robust z-score of log2 firefly/Renilla activity); higher = less repression of the 3' UTR reporter
Settings in all cases: HEK293T; 48 h
[1] = test system: MYC
Method in brief: (§1)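 For the interaction score, the firefly/Renilla ratio was log-transformed, expressed as a robust z-score per plate using median and median absolute deviation, and median-centred per miRNA; a more negative score indicates interaction. These scores come from at least two independent screens, averaged. Each screen used HEK293T cells at 10,000/well in 96-well plates, co-transfected with DharmaFECT Duo carrying 100 ng luc2P 3' UTR reporter, 20 ng pRL-TK and 2.5 pmol miRNA mimic, with luciferase read at 48 h.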

[2] = test system: NOTCH1
Method in brief: as §1

[3] = test system: FBXW7
Method in brief: as §1

[4] = test system: PHOX2B
Method in brief: as §1

[5] = test system: BRCA2
Method in brief: as §1

[6] = test system: MYT1L
Method in brief: as §1

[7] = test system: ZEB2
Method in brief: as §1

[8] = test system: PHF6
Method in brief: as §1

[9] = test system: MYCN
Method in brief: as §1

[10] = test system: HRAS
Method in brief: as §1

[11] = test system: EZH2
Method in brief: as §1

[12] = test system: RB1
Method in brief: as §1

[13] = test system: TP53
Method in brief: as §1

[14] = test system: MYB
Method in brief: as §1

UAAGUGCUUCCAUGUUUUAGUAG
3' UTR reporter interaction score [1]: -0.0722
3' UTR reporter interaction score [2]: 1.36
3' UTR reporter interaction score [3]: 0.557
3' UTR reporter interaction score [4]: -0.86
3' UTR reporter interaction score [5]: -0.649
3' UTR reporter interaction score [6]: -1.12
3' UTR reporter interaction score [7]: 1.24
3' UTR reporter interaction score [8]: 0.487
3' UTR reporter interaction score [9]: 0.56
3' UTR reporter interaction score [10]: 0.314
3' UTR reporter interaction score [11]: -0.765
3' UTR reporter interaction score [12]: 0.351
3' UTR reporter interaction score [13]: 0.0485
3' UTR reporter interaction score [14]: -0.833

UAAAGCUAGAUAACCGAAAGU
3' UTR reporter interaction score [1]: 0.416
3' UTR reporter interaction score [2]: 1.01
3' UTR reporter interaction score [3]: -0.801
3' UTR reporter interaction score [4]: 0.965
3' UTR reporter interaction score [5]: 1.05
3' UTR reporter interaction score [6]: -1.97
3' UTR reporter interaction score [7]: -0.694
3' UTR reporter interaction score [8]: -0.609
3' UTR reporter interaction score [9]: -1.46
3' UTR reporter interaction score [10]: 0.407
3' UTR reporter interaction score [11]: 0.346
3' UTR reporter interaction score [12]: 0.722
3' UTR reporter interaction score [13]: 0.374
3' UTR reporter interaction score [14]: 0.558

UUUUGCACCUUUUGGAGUGAA
3' UTR reporter interaction score [1]: 0.393
3' UTR reporter interaction score [2]: 1.27
3' UTR reporter interaction score [3]: -3.44
3' UTR reporter interaction score [4]: -0.86
3' UTR reporter interaction score [5]: 0.467
3' UTR reporter interaction score [6]: -0.182
3' UTR reporter interaction score [7]: -4.16
3' UTR reporter interaction score [8]: 0.706
3' UTR reporter interaction score [9]: 0.905
3' UTR reporter interaction score [10]: -0.429
3' UTR reporter interaction score [11]: -0.000424
3' UTR reporter interaction score [12]: -1.86
3' UTR reporter interaction score [13]: 0.767
3' UTR reporter interaction score [14]: 1

UACAGUAGUCUGCACAUUGGUU
3' UTR reporter interaction score [1]: 0.385
3' UTR reporter interaction score [2]: -0.605
3' UTR reporter interaction score [3]: 0.408
3' UTR reporter interaction score [4]: -0.571
3' UTR reporter interaction score [5]: 0.551
3' UTR reporter interaction score [6]: 3.26
3' UTR reporter interaction score [7]: 1.83
3' UTR reporter interaction score [8]: -0.669
3' UTR reporter interaction score [9]: 0.292
3' UTR reporter interaction score [10]: -0.926
3' UTR reporter interaction score [11]: -0.827
3' UTR reporter interaction score [12]: 2
3' UTR reporter interaction score [13]: -1.16
3' UTR reporter interaction score [14]: -0.118

UCCCUGAGACCCUAACUUGUGA
3' UTR reporter interaction score [1]: 1.24
3' UTR reporter interaction score [2]: -0.154
3' UTR reporter interaction score [3]: -0.252
3' UTR reporter interaction score [4]: -1.65
3' UTR reporter interaction score [5]: 1.7
3' UTR reporter interaction score [6]: 0.796
3' UTR reporter interaction score [7]: 1.05
3' UTR reporter interaction score [8]: 0.386
3' UTR reporter interaction score [9]: 0.264
3' UTR reporter interaction score [10]: 1.12
3' UTR reporter interaction score [11]: 0.82
3' UTR reporter interaction score [12]: -0.398
3' UTR reporter interaction score [13]: -1.15
3' UTR reporter interaction score [14]: -0.19

UGAGGUAGUAGGUUGUGUGGUU
3' UTR reporter interaction score [1]: -4.84
3' UTR reporter interaction score [2]: -0.305
3' UTR reporter interaction score [3]: 0.642
3' UTR reporter interaction score [4]: 0.11
3' UTR reporter interaction score [5]: 1.21
3' UTR reporter interaction score [6]: 0.566
3' UTR reporter interaction score [7]: -1.14
3' UTR reporter interaction score [8]: 0.852
3' UTR reporter interaction score [9]: -4.48
3' UTR reporter interaction score [10]: 0.13
3' UTR reporter interaction score [11]: -3.63
3' UTR reporter interaction score [12]: 1.01e-16
3' UTR reporter interaction score [13]: 0.495
3' UTR reporter interaction score [14]: 0.859

UAUGCAUUGUAUUUUUAGGUCC
3' UTR reporter interaction score [1]: 0.248
3' UTR reporter interaction score [2]: 0.872
3' UTR reporter interaction score [3]: -0.388
3' UTR reporter interaction score [4]: -2.52
3' UTR reporter interaction score [5]: 0.674
3' UTR reporter interaction score [6]: -0.778
3' UTR reporter interaction score [7]: -1.13
3' UTR reporter interaction score [8]: -1.28
3' UTR reporter interaction score [9]: -0.281
3' UTR reporter interaction score [10]: 0.558
3' UTR reporter interaction score [11]: 0.224
3' UTR reporter interaction score [12]: 0.308
3' UTR reporter interaction score [13]: -0.83
3' UTR reporter interaction score [14]: -1.29

ACCAUCGACCGUUGAUUGUACC
3' UTR reporter interaction score [1]: -0.128
3' UTR reporter interaction score [2]: -0.491
3' UTR reporter interaction score [3]: -0.0205
3' UTR reporter interaction score [4]: 0.0128
3' UTR reporter interaction score [5]: 0.723
3' UTR reporter interaction score [6]: -2.64
3' UTR reporter interaction score [7]: 0.294
3' UTR reporter interaction score [8]: 1.81
3' UTR reporter interaction score [9]: 0.598
3' UTR reporter interaction score [10]: -0.526
3' UTR reporter interaction score [11]: 0.789
3' UTR reporter interaction score [12]: -0.388
3' UTR reporter interaction score [13]: 0.659
3' UTR reporter interaction score [14]: 0.0907

AGGGUGUUUCUCUCAUCUCU
3' UTR reporter interaction score [1]: 0.84
3' UTR reporter interaction score [2]: -1.24
3' UTR reporter interaction score [3]: -0.794
3' UTR reporter interaction score [4]: 2.27
3' UTR reporter interaction score [5]: -0.403
3' UTR reporter interaction score [6]: -2.32
3' UTR reporter interaction score [7]: -0.283
3' UTR reporter interaction score [8]: 1.32
3' UTR reporter interaction score [9]: 1.22
3' UTR reporter interaction score [10]: 0.396
3' UTR reporter interaction score [11]: -0.619
3' UTR reporter interaction score [12]: -0.774
3' UTR reporter interaction score [13]: 0.571
3' UTR reporter interaction score [14]: 1.44

From the supplement of paper PMC5844555
